Counter-ions that a name gives are not always drawn.
System: Phakopsora pachyrhizi
Assay: Phakopsora pachyrhizi test in soybean (greenhouse, preventive activity, disease severity rating)
Type: in vivo
Settings: preventive spray on soybean, compared to the untreated check
Description: To test the preventive activity of compounds, healthy young soybean plants, raised in the greenhouse, were sprayed with the active compound solution at the stated application rates inside spray cabinets using hallowcone nozzles. One day after treatment, the plants were inoculated with a suspension containing 2.1×10^6 Phakopsora pachyrhizi spores. The inoculated plants were then kept in the greenhouse chamber at 25° C. temperature and 90% relative humidity for disease expression. A visual assessment of the compound's performance was carried out by rating the disease severity (0-100% scale) on treated plants on 3, 7, 10 and 15 days after application. Efficacy (% control) of the compounds was calculated by comparing the disease rating in the treatment with the one of the untreated control. The treated plants were also assessed for plant compatibility by recording symptoms like necrosis, chlorosis and stunting.

Row | SMILES | pest or weed control at 500 ppm
1 | O=C(c1ccccc1F)N1CC[C@H](Oc2ccc(-c3noc(C(F)(F)F)n3)nc2)C1 [Compound 28, (S)-(2-fluorophenyl)(3-((6-(5-(trifluoromethyl)-1,2,4-oxadiazol-3-yl)pyridin-3-yl)oxy)pyrrolidin-1-yl)methanone] | > 70%
2 | O=S(=O)(c1cccc(Cl)c1)N1CC[C@H](Oc2ccc(-c3noc(C(F)(F)F)n3)cc2)C1 [Compound 122, (S)-3-(4-((1-((3-chlorophenyl)sulfonyl)pyrrolidin-3-yl)oxy)phenyl)-5-(trifluoromethyl)-1,2,4-oxadiazole] | > 70%
3 | COc1ccc(C(=O)N2CC[C@H](Oc3ccc(-c4noc(C(F)(F)F)n4)cc3F)C2)cc1 [Compound 53, (S)-(3-(2-fluoro-4-(5-(trifluoromethyl)-1,2,4-oxadiazol-3-yl)phenoxy)pyrrolidin-1-yl)(4-methoxyphenyl)methanone] | > 70%
4 | O=C(c1ccc(F)cc1)N1CCC(Oc2ccc(-c3noc(C(F)(F)F)n3)cc2)CC1 [Compound 142, (4-fluorophenyl)(4-(4-(5-(trifluoromethyl)-1,2,4-oxadiazol-3-yl)phenoxy)piperidin-1-yl)methanone] | > 70%
5 | N#Cc1ccc(S(=O)(=O)N2CC[C@H](Oc3ccc(-c4noc(C(F)(F)F)n4)cn3)C2)cc1 [Compound 150, (S)-4-((3-((5-(5-(trifluoromethyl)-1,2,4-oxadiazol-3-yl)pyridin-2-yl)oxy)pyrrolidin-1-yl)sulfonyl)benzonitrile] | > 70%
6 | COc1ccc(S(=O)(=O)N2CC[C@H](Oc3ccc(-c4noc(C(F)(F)F)n4)cc3)C2)cc1 [Compound 34, (S)-3-(4-((1-((4-methoxyphenyl)sulfonyl)pyrrolidin-3-yl)oxy)phenyl)-5-(trifluoromethyl)-1,2,4-oxadiazole] | > 70%
7 | O=C(c1ccncc1)N1CC[C@H](Oc2ccc(-c3noc(C(F)(F)F)n3)nc2)C1 [Compound 32, (S)-pyridin-4-yl(3-((6-(5-(trifluoromethyl)-1,2,4-oxadiazol-3-yl)pyridin-3-yl)oxy)pyrrolidin-1-yl)methanone] | > 70%
8 | O=S(=O)(c1ccc(F)cc1)N1CC[C@H](Oc2ccc(-c3noc(C(F)(F)F)n3)cc2)C1 [Compound 35, (S)-3-(4-((1-((4-fluorophenyl)sulfonyl)pyrrolidin-3-yl)oxy)phenyl)-5-(trifluoromethyl)-1,2,4-oxadiazole] | > 70%
9 | CC(C)(C)OC(=O)N1CC[C@H](Oc2ccc(-c3noc(C(F)(F)F)n3)c(F)c2)C1 [Compound 62, tert-butyl (S)-3-(3-fluoro-4-(5-(trifluoromethyl)-1,2,4-oxadiazol-3-yl)phenoxy)pyrrolidine-1-carboxylate] | > 70%
10 | O=S(=O)(C1CC1)N1CC[C@H](Oc2ccc(-c3noc(C(F)(F)F)n3)cn2)C1 [Compound 106, (S)-3-(6-((1-(cyclopropylsulfonyl)pyrrolidin-3-yl)oxy)pyridin-3-yl)-5-(trifluoromethyl)-1,2,4-oxadiazole] | > 70%
11 | Cc1ccsc1S(=O)(=O)N1CC[C@H](Oc2ccc(-c3noc(C(F)(F)F)n3)cc2)C1 [Compound 147, (S)-3-(4-((1-((3-methylthiophen-2-yl)sulfonyl)pyrrolidin-3-yl)oxy)phenyl)-5-(trifluoromethyl)-1,2,4-oxadiazole] | > 70%
12 | FC(F)(F)c1nc(-c2cccc(OC3CCNC3)c2)no1 (centres unmarked) [Compound 128, 3-(3-(pyrrolidin-3-yloxy)phenyl)-5-(trifluoromethyl)-1,2,4-oxadiazole hydrochloride] | > 70%
13 | CC(C)(C)OC(=O)N1CC[C@H](Oc2ccc(-c3noc(C(F)(F)F)n3)nc2)C1 [Compound 27, tert-butyl (S)-3-((6-(5-(trifluoromethyl)-1,2,4-oxadiazol-3-yl)pyridin-3-yl)oxy)pyrrolidine-1-carboxylate] | > 70%
14 | O=S(=O)(c1cccnc1)N1CC[C@H](Oc2ccc(-c3noc(C(F)(F)F)n3)cn2)C1 [Compound 153, (S)-3-(6-((1-(pyridin-3-ylsulfonyl)pyrrolidin-3-yl)oxy)pyridin-3-yl)-5-(trifluoromethyl)-1,2,4-oxadiazole] | > 70%
15 | O=S(=O)(c1ccccc1)N1CC[C@H](Oc2ccc(-c3noc(C(F)(F)F)n3)cn2)C1 [Compound 104, (S)-3-(6-((1-(phenylsulfonyl)pyrrolidin-3-yl)oxy)pyridin-3-yl)-5-(trifluoromethyl)-1,2,4-oxadiazole] | > 70%
16 | O=C(c1cccc(F)c1)N1CC[C@H](Oc2ccc(-c3noc(C(F)(F)F)n3)c(F)c2)C1 [Compound 64, (S)-(3-(3-fluoro-4-(5-(trifluoromethyl)-1,2,4-oxadiazol-3-yl)phenoxy)pyrrolidin-1-yl)(3-fluorophenyl)methanone] | > 70%

Row | SMILES | pest or weed control at 500 ppm
17 | O=S(=O)(c1cccc(F)c1)N1CC[C@H](Oc2ccc(-c3noc(C(F)(F)F)n3)cn2)C1 [Compound 149, (S)-3-(6-((1-((3-fluorophenyl)sulfonyl)pyrrolidin-3-yl)oxy)pyridin-3-yl)-5-(trifluoromethyl)-1,2,4-oxadiazole] | > 70%
18 | O=C(C1CC1)N1CC[C@H](Oc2ccc(-c3noc(C(F)(F)F)n3)cc2)C1 [Compound 43, (S)-cyclopropyl(3-(4-(5-(trifluoromethyl)-1,2,4-oxadiazol-3-yl)phenoxy)pyrrolidin-1-yl)methanone] | > 70%
19 | O=S(=O)(c1ccccc1F)N1CC[C@H](Oc2ccc(-c3noc(C(F)(F)F)n3)cn2)C1 [Compound 152, (S)-3-(6-((1-((2-fluorophenyl)sulfonyl)pyrrolidin-3-yl)oxy)pyridin-3-yl)-5-(trifluoromethyl)-1,2,4-oxadiazole] | > 70%
20 | CC(C)(C)OC(=O)N1CCC(Oc2ccc(-c3noc(C(F)(F)F)n3)cc2)CC1 [Compound 84, tert-butyl 4-(4-(5-(trifluoromethyl)-1,2,4-oxadiazol-3-yl)phenoxy)piperidine-1-carboxylate] | > 70%
21 | CN(C)c1ccc(C(=O)N2CC[C@H](Oc3ccc(-c4noc(C(F)(F)F)n4)cc3)C2)cc1 [Compound 8, (S)-(4-(dimethylamino)phenyl)(3-(4-(5-(trifluoromethyl)-1,2,4-oxadiazol-3-yl)phenoxy)pyrrolidin-1-yl)methanone] | > 70%
22 | CCCS(=O)(=O)N1CC[C@H](Oc2ccc(-c3noc(C(F)(F)F)n3)cn2)C1 [Compound 110, (S)-3-(6-((1-(propylsulfonyl)pyrrolidin-3-yl)oxy)pyridin-3-yl)-5-(trifluoromethyl)-1,2,4-oxadiazole] | > 70%
23 | O=C(c1ccccc1F)N1CC(Oc2ccc(-c3noc(C(F)(F)F)n3)cc2)C1 [Compound 20, (2-fluorophenyl)(3-(4-(5-(trifluoromethyl)-1,2,4-oxadiazol-3-yl)phenoxy)azetidin-1-yl)methanone] | > 70%
24 | O=C(c1cncnc1)N1CC[C@H](Oc2ccc(-c3noc(C(F)(F)F)n3)cc2)C1 [Compound 57, (S)-pyrimidin-5-yl(3-(4-(5-(trifluoromethyl)-1,2,4-oxadiazol-3-yl)phenoxy)pyrrolidin-1-yl)methanone] | > 70%
25 | Cn1cnc(S(=O)(=O)N2CC[C@H](Oc3ccc(-c4noc(C(F)(F)F)n4)cc3)C2)c1 [Compound 148, (S)-3-(4-((1-((1-methyl-1H-imidazol-4-yl)sulfonyl)pyrrolidin-3-yl)oxy)phenyl)-5-(trifluoromethyl)-1,2,4-oxadiazole] | > 70%
26 | O=S(=O)(c1ccccc1)N1CC[C@@H](Oc2ccc(-c3noc(C(F)(F)F)n3)cn2)C1 [Compound 71, (R)-3-(6-((1-(phenylsulfonyl)pyrrolidin-3-yl)oxy)pyridin-3-yl)-5-(trifluoromethyl)-1,2,4-oxadiazole] | > 70%
27 | O=C(c1ccc(Cl)cc1)N1CC[C@H](Oc2ccc(-c3noc(C(F)(F)F)n3)cc2)C1 [Compound 44, (S)-(4-chlorophenyl)(3-(4-(5-(trifluoromethyl)-1,2,4-oxadiazol-3-yl)phenoxy)pyrrolidin-1-yl)methanone] | > 70%
28 | O=C(c1cccnc1)N1CC[C@H](Oc2ccc(-c3noc(C(F)(F)F)n3)c(F)c2)C1 [Compound 65, (S)-(3-(3-fluoro-4-(5-(trifluoromethyl)-1,2,4-oxadiazol-3-yl)phenoxy)pyrrolidin-1-yl)(pyridin-3-yl)methanone] | > 70%
29 | CC(C)S(=O)(=O)N1CC[C@H](Oc2ccc(-c3noc(C(F)(F)F)n3)cn2)C1 [Compound 155, (S)-3-(6-((1-(isopropylsulfonyl)pyrrolidin-3-yl)oxy)pyridin-3-yl)-5-(trifluoromethyl)-1,2,4-oxadiazole] | > 70%
30 | O=C(c1ccccc1F)N1CC[C@H](Oc2ccc(-c3noc(C(F)(F)F)n3)c(F)c2)C1 [Compound 63, (S)-(3-(3-fluoro-4-(5-(trifluoromethyl)-1,2,4-oxadiazol-3-yl)phenoxy)pyrrolidin-1-yl)(2-fluorophenyl)methanone] | > 70%
31 | O=C(Nc1ccc(F)cc1)N1CC[C@H](Oc2ccc(-c3noc(C(F)(F)F)n3)cc2)C1 [Compound 38, (S)-N-(4-fluorophenyl)-3-(4-(5-(trifluoromethyl)-1,2,4-oxadiazol-3-yl)phenoxy)pyrrolidine-1-carboxamide] | > 70%
32 | O=S(=O)(c1ccccc1F)N1CC[C@H](Oc2ccc(-c3noc(C(F)(F)F)n3)cc2)C1 [Compound 33, (S)-3-(4-((1-((2-fluorophenyl)sulfonyl)pyrrolidin-3-yl)oxy)phenyl)-5-(trifluoromethyl)-1,2,4-oxadiazole] | > 70%

From patent US20210392895A1, “NOVEL OXADIAZOLES” (PI INDUSTRIES LIMITED, priority 2018, published 2021)
